# Measured values published in PMC11882969 (Nature Communications, 2025).
# Target: CB1 (rCB1) (Rattus norvegicus, UniProt P20272)
# Test: Single-point radioligand displacement screen
# Format: binding
# Conditions: 10 µM, 1 µM or 300 nM by cell colour (not visible)
# Sequence of CB1 (rCB1) (P20272 whole entry): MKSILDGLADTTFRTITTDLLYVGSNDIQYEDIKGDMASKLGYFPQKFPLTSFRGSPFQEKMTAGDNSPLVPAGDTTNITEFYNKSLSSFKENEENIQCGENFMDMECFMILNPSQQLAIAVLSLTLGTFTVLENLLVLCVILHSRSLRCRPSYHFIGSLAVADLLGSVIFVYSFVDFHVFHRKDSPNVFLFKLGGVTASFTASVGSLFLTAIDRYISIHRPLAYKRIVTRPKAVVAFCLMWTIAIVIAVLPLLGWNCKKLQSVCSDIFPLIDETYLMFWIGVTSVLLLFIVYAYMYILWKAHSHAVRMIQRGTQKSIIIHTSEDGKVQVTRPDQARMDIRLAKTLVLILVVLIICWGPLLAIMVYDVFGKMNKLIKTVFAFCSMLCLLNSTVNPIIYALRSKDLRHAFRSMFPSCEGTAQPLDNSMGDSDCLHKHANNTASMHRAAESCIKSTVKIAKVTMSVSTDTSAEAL
smiles,measurement,value
Cc1nc(CC2CC2)oc1-c1nc(Cc2ccc3c(c2)OCCCO3)no1 [7019_1],"% 1H-CP-55,940 displacement (mean) from single point screen",6.40%
